Data set [1] relates to murine peritoneal macrophages. Briefly: NO2- production by periodate-activated murine peritoneal macrophages. Format: cell-based. The protocol: Nitrite (NO2-) levels were determined in supernatants at the time indicated, as described herein. (Table 5) Values are expressed as means of triplicate cultures. […] Two additional experiments yielded similar results.
NO2- the product of NO oxidation is used to determine NO produced. Nitrite concentration in supernatants of macrophages was measured by a microplate assay method. 100 ul aliquots of supernatants were incubated with an equal volume of Griess reagent (1% sulfanilamide/O.1% naphthylethylene diamine dihydrochloride/2.5% H3PO4) at room temperature for 10 min. The absorbance at 550nm was determined in a microplate reader. Sodium nitrite was used as a standard.
Mice were injected i.p. with 1 ml sodium periodate (5mM). Three to 4 days later, macrophages were washed from the peritoneal cavity with PBS. After centrifugation at 170g for 10 min at […], the cell pellet was resuspended in RPMI 1640 containing 10% heat-inactivated new born calf serum. Adherent macrophage monolayers were obtained by plating the cells in 96-well plastic trays at 4x10^5 cells/well for 2 hr at 37°C in 5% CO2/air. Nonadherent cells were removed by suction and complete medium was added. […]

The test system of data set [2] is Murine fibroblastic cells (A9). The settings on record: for Protection Against TNF-α-Induced Cytotoxicity (cell viability): 1440 min.
Protocol: Tyrphostins at different concentration were added 2 hr prior to TNF. After 24 hrs cells viability was determined by vital staining using neutral red.
Recombinant human TNFα is added to a mouse fibroblastic cell line (A9), cultured in the presence of cyclohexamine and cell viability is monitored after 20 hours. […] The percentage of live cells was measured from 2 hours prior to administration until 4 hours after administration for a control and for TNF at concentrations of 0.2 ng/ml, 0.05 ng/ml, and 1.0 ng/ml.
The subject of a further data set is PDGFR. The settings on record: even at concentrations above 100 uM; cited from earlier work.
The target in another data set is Her-2/neu receptor (Homo sapiens, UniProt P04626). The settings on record: even at concentrations above 100 uM; cited from earlier work.
Data set [3] deals with TNF-α. The data set is described as follows: LPS-induced production of TNF-α by activated murine peritoneal macrophages in vitro.
Protocol: The amount of TNF-α was quantitated by assessing the extent of killing of the TNF-α sensitive cell line (A9) essentially as described by Ruff and Gilford, G. E. J. Immunol. […] Briefly, mouse A9 fibroblasts were plated in 96-well flat-bottom micro-titer plates at 30,000 cells /0.1 ml to establish a dense monolayer. After incubation for 24 hr at 37 C in a humidified 5% CO2 atmosphere, cycloheximide was added to a final concentration of 50 ug/ml and 100 ul of serially diluted test samples were added to the wells. After incubation for additional 18 hr the supernatants were carefully aspirated, the monolayer were washed twice with PBS and 200 ul of neutral red solution (0.02%) was added. After incubation for 2 hr, cells were washed and the dye that had been absorbed by the live cells was extracted using 200 ul of 50% ethanol. The concentration of the dye was determined by an ELISA autoreader using a 550 nm filter. Murine TNF-α ELISA kit from ENDOGEN Inc., was used for quancitation of murine TNF-α.
Mice were injected i.p. with 1 ml sodium periodate (5mM). Three to 4 days later, macrophages were washed from the peritoneal cavity with PBS. After centrifugation at 170g for 10 min at 40° C, the cell pellet was resuspended in RPMI 1640 containing 10% heat-inactivated new born calf serum. Adherent macrophage monolayers were obtained by plating the cells in 96-well plastic trays at 4x10^5 cells/well for 2 hr at 37°C in 5% CO2/air. Nonadherent cells were removed by suction and complete medium was added.
Another data set concerns the target EGF receptor (Homo sapiens, UniProt P00533). As to conditions: even at concentrations above 100 uM; cited from earlier work.
The test system of data set [4] is TNF-α. The data set is described as follows: LPS induced increase in serum TNF-α levels in mice. Format: in vivo. The text has this: TNF-α was implicated to mediate many of the toxic effect of LPS. For example, the effect of SSI 3 on serum TNF-α levels in mice which had been treated with LPS was investigated. LPS induced a rapid increase in serum TNF-α levels. […] […] The bioassay gave somewhat higher levels compared to the ELISA. This finding may indicate that the serum from LPS-treated mice contained in addition to TNF-α, other cytotoxic factors.
The amount of TNF-α was quantitated by assessing the extent of killing of the TNF-α sensitive cell line (A9) essentially as described by Ruff and Gilford, G. E. J. Immunol. 125, 1671-1677, (1980). Briefly, mouse A9 fibroblasts were plated in 96-well flat-bottom micro-titer plates at 30,000 cells /0.1 ml to establish a dense monolayer. After incubation for 24 hr at 37 C in a humidified 5% CO2 atmosphere, cycloheximide was added to a final concentration of 50 ug/ml and 100 ul of serially diluted test samples were added to the wells. After incubation for additional 18 hr the supernatants were carefully aspirated, the monolayer were washed twice with PBS and 200 ul of neutral red solution (0.02%) was added. After incubation for 2 hr, cells were washed and the dye that had been absorbed by the live cells was extracted using 200 ul of 50% ethanol. The concentration of the dye was determined by an ELISA autoreader using a 550 nm filter. Murine TNF-α ELISA kit from ENDOGEN Inc., was used for quancitation of murine TNF-α.

The subject of another data set is mice. Briefly: LPS-induced lethal toxicity in mice. The settings on record: for mice alive after 7 days: 100 ug/mouse 2 hours before or after LPS.
Data set [5] is described as follows: Solubility in aqueous solution. Format: physicochemical.
Setting [6] is: LPS 200 µg/mouse, AG 300 µg/mouse 2 hrs prior to LPS, 1hr, mean (two single values).
Setting [7] is: LPS 200 µg/mouse, AG 300 µg/mouse 2 hrs prior to LPS, 2hr, mean (two single values).
[8] abbreviates: no LPS (-), AG 300 µg/mouse, 1hr.

Molecules are shown by their SMILES. Read-outs that look alike come from different tables or passages of the source.

Data on six molecules can be found in patent EP0731697B1, “SSI TYRPHOSTINS AND PHARMACEUTICAL COMPOSITIONS” (priority 1993, dated 1995).

Chain of EGF receptor (P00533 25-1210): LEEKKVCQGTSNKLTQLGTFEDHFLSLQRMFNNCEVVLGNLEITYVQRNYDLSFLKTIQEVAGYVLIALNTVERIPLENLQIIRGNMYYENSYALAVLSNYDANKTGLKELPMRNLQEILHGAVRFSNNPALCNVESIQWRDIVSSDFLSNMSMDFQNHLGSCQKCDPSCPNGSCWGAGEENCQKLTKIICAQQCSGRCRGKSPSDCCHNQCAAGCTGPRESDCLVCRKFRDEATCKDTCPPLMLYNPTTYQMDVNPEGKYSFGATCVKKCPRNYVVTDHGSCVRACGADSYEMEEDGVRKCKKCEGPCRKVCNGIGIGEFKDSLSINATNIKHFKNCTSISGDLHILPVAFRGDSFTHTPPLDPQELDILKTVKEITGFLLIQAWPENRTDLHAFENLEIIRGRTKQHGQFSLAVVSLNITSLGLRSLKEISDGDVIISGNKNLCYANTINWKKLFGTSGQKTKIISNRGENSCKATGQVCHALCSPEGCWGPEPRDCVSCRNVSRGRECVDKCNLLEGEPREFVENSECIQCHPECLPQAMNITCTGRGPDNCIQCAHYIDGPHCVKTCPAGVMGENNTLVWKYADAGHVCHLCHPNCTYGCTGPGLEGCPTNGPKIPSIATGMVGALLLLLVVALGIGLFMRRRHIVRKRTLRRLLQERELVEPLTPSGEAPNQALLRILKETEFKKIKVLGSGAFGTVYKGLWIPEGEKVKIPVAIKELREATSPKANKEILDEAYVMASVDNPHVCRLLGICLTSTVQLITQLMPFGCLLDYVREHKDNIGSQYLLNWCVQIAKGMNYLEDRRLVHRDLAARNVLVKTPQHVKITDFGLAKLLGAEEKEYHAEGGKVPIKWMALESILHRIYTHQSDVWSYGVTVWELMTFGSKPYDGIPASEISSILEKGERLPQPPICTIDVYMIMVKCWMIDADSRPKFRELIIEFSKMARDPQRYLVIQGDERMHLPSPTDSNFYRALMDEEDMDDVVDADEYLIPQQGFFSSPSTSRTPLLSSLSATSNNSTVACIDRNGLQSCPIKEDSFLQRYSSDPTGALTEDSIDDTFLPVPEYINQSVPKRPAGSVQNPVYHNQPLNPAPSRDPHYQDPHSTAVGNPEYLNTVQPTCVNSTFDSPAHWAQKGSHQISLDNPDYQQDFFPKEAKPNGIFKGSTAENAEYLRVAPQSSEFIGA
Chain of Her-2/neu receptor (P04626 23-1255): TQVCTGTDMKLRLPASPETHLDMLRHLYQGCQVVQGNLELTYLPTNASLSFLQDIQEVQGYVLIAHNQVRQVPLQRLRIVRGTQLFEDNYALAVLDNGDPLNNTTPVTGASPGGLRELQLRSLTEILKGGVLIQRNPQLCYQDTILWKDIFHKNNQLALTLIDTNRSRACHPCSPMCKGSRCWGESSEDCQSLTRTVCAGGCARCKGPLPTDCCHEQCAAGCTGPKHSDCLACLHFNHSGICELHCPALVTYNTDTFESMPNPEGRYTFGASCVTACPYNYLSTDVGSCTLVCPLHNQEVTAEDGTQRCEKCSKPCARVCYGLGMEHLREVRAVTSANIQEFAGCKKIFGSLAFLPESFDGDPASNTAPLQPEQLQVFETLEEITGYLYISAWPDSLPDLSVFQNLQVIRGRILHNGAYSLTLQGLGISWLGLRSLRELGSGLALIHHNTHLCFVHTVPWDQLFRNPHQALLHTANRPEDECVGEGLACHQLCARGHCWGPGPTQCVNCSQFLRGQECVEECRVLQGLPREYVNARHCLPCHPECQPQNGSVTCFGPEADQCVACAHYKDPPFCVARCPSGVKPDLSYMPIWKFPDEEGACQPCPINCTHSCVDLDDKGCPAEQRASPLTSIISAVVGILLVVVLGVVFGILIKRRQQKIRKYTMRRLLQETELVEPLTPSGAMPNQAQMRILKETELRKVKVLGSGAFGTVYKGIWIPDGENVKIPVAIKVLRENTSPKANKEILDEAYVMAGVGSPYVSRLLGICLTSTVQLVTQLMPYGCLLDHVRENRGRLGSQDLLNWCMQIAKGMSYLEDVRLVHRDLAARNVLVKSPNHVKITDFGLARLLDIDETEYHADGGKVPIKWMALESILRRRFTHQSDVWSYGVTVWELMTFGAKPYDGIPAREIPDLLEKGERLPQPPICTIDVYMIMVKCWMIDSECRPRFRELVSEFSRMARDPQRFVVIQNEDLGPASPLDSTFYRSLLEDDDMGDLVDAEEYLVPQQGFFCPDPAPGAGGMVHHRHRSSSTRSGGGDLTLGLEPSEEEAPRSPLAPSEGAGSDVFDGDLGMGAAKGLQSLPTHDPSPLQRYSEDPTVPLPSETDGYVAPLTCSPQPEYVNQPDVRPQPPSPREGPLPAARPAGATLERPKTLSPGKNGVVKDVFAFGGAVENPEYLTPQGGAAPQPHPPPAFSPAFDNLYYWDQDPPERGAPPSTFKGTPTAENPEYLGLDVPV

Take `N#CC(C#N)=Cc1cc(O)c(O)c([N+](=O)[O-])c1` [SSI 8]: the “NO2- production in unstimulated and LPS-stimulated periodate-activated murine macrophages” value in data set [1] (LPS (10 mg/ml)) was “effectively inhibited”. Also, the “NO2- Production by Macrophages” value was 42,7 µg in data set [1] (SSI 20 uM, LPS 10 ug, 1 DAY); 80,6 µg in data set [1] (SSI 20 uM, LPS 10 ug, 2 DAY); 83,4 µg in data set [1] (SSI 20 uM, LPS 10 ug, 3 DAY); 10,4 µg in [1] (SSI 20 uM, no LPS, 1 DAY); 13,5 µg in [1] (SSI 20 uM, no LPS, 2 DAY); 11,8 µg in data set [1] (SSI 20 uM, no LPS, 3 DAY). The “NO2- Production by Macrophages” value in data set [1] (SSI 50uM, LPS 10 ug, 1 DAY) is 6,4 µg; in data set [1] (SSI 50uM, LPS 10 ug, 2 DAY) it was 11,5 µg; in data set [1] (SSI 50uM, LPS 10 ug, 3 DAY), 22,4 µg; in data set [1] (SSI 50 uM, no LPS, 1 DAY), 5,8 µg; in [1] (SSI 50 uM, no LPS, 2 DAY) it was 8,1 µg; in [1] (SSI 50 uM, no LPS, 3 DAY), 5,9 µg. Also, the “blocking TNF-α induced cytotoxicity in vitro” value in [2] is given as “active”. The “Protection Against TNF-α-Induced Cytotoxicity (cell viability)” value in data set [2] (TNF-α 0 ng/ml) is 100; in data set [2] (TNF-α 0.2 ng/ml, none 41±2.3) it was 67±4.1; in data set [2] (TNF-α 0.5 ng/ml, none 20±1.7) it was 46+2.8. Also, in the data set on PDGFR, the “effect on PDGFR” value is “no effect”. At Her-2/neu receptor, the “effect on Her-2/neu receptor” value was “no effect”. The TNF-α in the data set with TNF-α [3] (LPS +) and in the data set on TNF-α [3] (LPS -) was below 5 pg/mL in each case. The “ability to inhibit LPS-induced production of TNF-α by activated murine peritoneal macrophages in vitro” value with TNF-α [3] (among the tyrphostins tested) is reported as “most potent”. Moreover, the “effect on EGF receptor” value at EGF receptor is “no effect”.

Consider `N#CC(=Cc1cc(O)c(O)c([N+](=O)[O-])c1)C(=O)O` [SSI 9], for which the “NO2- Production by Macrophages” value in data set [1] (SSI 20 uM, LPS 10 ug, 1 DAY) is reported as 71,3 µg; in data set [1] (SSI 20 uM, LPS 10 ug, 2 DAY), 112,9 µg; in data set [1] (SSI 20 uM, LPS 10 ug, 3 DAY), 136 µg; in data set [1] (SSI 20 uM, no LPS, 1 DAY), 41,8 µg; in data set [1] (SSI 20 uM, no LPS, 2 DAY), 57,2 µg; in data set [1] (SSI 20 uM, no LPS, 3 DAY), 45,1 µg. For the same molecule, the “NO2- Production by Macrophages” value in data set [1] (SSI 50 uM, no LPS, 1 DAY) is recorded as 36 µg; in [1] (SSI 50 uM, no LPS, 2 DAY), 51 µg; in data set [1] (SSI 50 uM, no LPS, 3 DAY), 33 µg. Further, in data set [2], the “blocking TNF-α induced cytotoxicity in vitro” value is “not”. Also, the figures for the TNF-α in the data set with TNF-α [3] (LPS +) and in the data set with TNF-α [3] (LPS -) were 17 pg/mL and below 5 pg/mL, respectively. Also, the “Serum TNF-α” value in the data set on TNF-α [4] (setting [6]) is 17.7 (17.3, 18.2) ng/ml; in the data set with TNF-α [4] (setting [7]) it was 11.1 (10.5, 11.7) ng/ml; in the data set with TNF-α [4] (setting [8]), 16.0 ng/mL.

Regarding `N#CC(=Cc1cc(O)c(O)c([N+](=O)[O-])c1)C(=O)NCCCc1ccccc1` [SSI 10], the “NO2- Production by Macrophages” value in data set [1] (SSI 20 uM, LPS 10 ug, 1 DAY) was 42,3 µg; in data set [1] (SSI 20 uM, LPS 10 ug, 2 DAY), 100,9 µg; in [1] (SSI 20 uM, LPS 10 ug, 3 DAY) it was 124,9 µg; in data set [1] (SSI 20 uM, no LPS, 1 DAY), 23,4 µg; in data set [1] (SSI 20 uM, no LPS, 2 DAY), 27,9 µg; in [1] (SSI 20 uM, no LPS, 3 DAY), 44,6 µg. Besides, the “NO2- Production by Macrophages” value in data set [1] (SSI 50 uM, no LPS, 1 DAY) was 23,3 µg; in data set [1] (SSI 50 uM, no LPS, 2 DAY), 12,3 µg; in data set [1] (SSI 50 uM, no LPS, 3 DAY) it was 13,2 µg. In addition, the “Serum TNF-α” value in the data set with TNF-α [4] (setting [6]) is 18.7 (23.2, 19.2) ng/ml; with TNF-α [4] (setting [7]), 12.9 (13.6, 12.2) ng/ml; with TNF-α [4] (setting [8]) it was 14.0 ng/mL.

On to `N#CC(=Cc1ccc(O)c(O)c1)C(=O)NCc1ccccc1` [SSI 16], for which the “LPS induced toxicity in vivo” value with mice (400 ug/mouse over 7 days with 10 mice) is “does not prevent”. Further, in data set [1] (50 um, added 2 hours prior to LPS, 24 hours), the “LPS induced NO production” value is on record as “markedly inhibit”. For the same molecule, the NO production in data set [1] (50 um, from an initial level of 70 uM (no LPS), 24 hours) was around 30 µM; in data set [1] (50 um, from an initial level of 40 (10 ug/ml of LPS), 24 hours), “approximately 20 uM”. Moreover, the “more active in inhibiting TNF-α cytotoxicity in vitro” value in data set [2] was “two to three fold”. The “TNF toxicity (percentage of live cells)” value in data set [2] (SSI 3 50 uM, SSI 16 2 uM, SSI 17 2 and 10 uM, A9 cells with cyclohexamine, viability after 20 hours, TNF 0.2, 0.05 and 1.0 ng/ml) is on record as “prevent TNF toxicity to different degrees”. Also, the “Protection Against TNF-α-Induced Cytotoxicity (cell viability)” value amounted to 100 in data set [2] (TNF-α 0 ng/ml); 41±4.3 in data set [2] (TNF-α 0.2 ng/ml, none 41±2.3); 23±2.0 in data set [2] (TNF-α 0.5 ng/ml, none 20±1.7).

As to `N#CC(=Cc1ccc([N+](=O)[O-])c(O)c1)C(=O)NCCCc1ccccc1` [SSI 19], the “preventing TNF toxicity” value in data set [2] (2 and 10 uM) is “effective”. The “toxicity to the indicator A9 cells” value in data set [2] (50 um, by itself) was “toxic”. The “Protection Against TNF-α-Induced Cytotoxicity (cell viability)” value in data set [2] (TNF-α 0 ng/ml) is recorded as 100; in data set [2] (TNF-α 0.2 ng/ml, none 41±2.3) it was 42±3.7; in [2] (TNF-α 0.5 ng/ml, none 20±1.7) it was 18±2.6.

Turning to `N#CC(=Cc1ccc([N+](=O)[O-])c(O)c1)C(=O)NCCCCc1ccccc1` [SSI 23], the “mice alive after 7 days” value with mice (2.2 mg LPS/mouse, LPS alone 1 alive) was 4 out of 5 mice. Also, the “mice alive after 7 days” value in the data set on mice (2.5 mg LPS/mouse, LPS alone 0 alive after 1 day) is recorded as 2 out of 5 mice. Besides, the induced lethality entry in the data set on mice (even when administered late after LPS) is recorded as “prevent”. The “preventing TNF toxicity in vitro” value in data set [2] (50um, added at the same time, 1 hour prior to, or late (2hr) after the addition of TNF) is “effective”. Also, in data set [5], the “behaviour after dilution of the stock (made in DMSO) in PBS” value is “rapidly precipitates” and the “solubility in aqueous solution” value is on record as “very soluble”.
